Assay results as given in patent publication US11448964B2, “Coating compositions for use with an overcoated photoresist” (Rohm and Haas Electronic Materials Korea Ltd., priority 2016, dated 2022).

Test: Solubility of thermal acid generators in organic solvents (super-saturated solution, shaken 16 hours, filtered, solid content by Thermal Gravimetric Analysis)
Format: physicochemical
Settings: room temperature, TGA; for Solubility in HBM (solid content of filtered solution): 2-hydroxyisobutyric acid methyl ester (HBM); for Solubility in EL (solid content of filtered solution): ethyl lactate (EL); for Solubility in PGME (solid content of filtered solution): propylene glycol methyl ether (PGME)

Row | Compound | Solubility in HBM (solid content of filtered solution) [wt. %] | Solubility in EL (solid content of filtered solution) [wt. %] | Solubility in PGME (solid content of filtered solution) [wt. %]
1 | COc1ccncc1 [Example 2, 4-methoxypyridin-1-ium 4-methylbenzenesulfonate] | 18 | 32 | 26
2 | Cc1ccccn1 [Example 1, 2-methylpyridin-1-ium 4-methylbenzenesulfonate] | 20 | 29 | 27
